How the values were obtained:
HepG2 = experiment: Cytotoxicity against human HepG2 cells assessed as induction of cell death incubated for 2 days by MTT assay; type: functional, cell-based; conditions: HepG2, 48 h
Bcap37 = experiment: Cytotoxicity against human Bcap37 cells assessed as induction of cell death incubated for 2 days by MTT assay; type: functional, cell-based; conditions: Bcap37, 48 h
MCF7 = experiment: Cytotoxicity against human MCF7 cells assessed as induction of cell death incubated for 2 days by MTT assay; type: functional, cell-based; conditions: MCF7, 48 h
[1] = Cytotoxicity against human Hep3B cells assessed as induction of cell death incubated for 2 days by MTT assay; type: functional, cell-based, Hep 3B2; conditions: 48 h
A549 = experiment: Cytotoxicity against human A549 cells assessed as induction of cell death incubated for 2 days by MTT assay; type: functional, cell-based; conditions: A549, 48 h

Row | SMILES | IC50 (HepG2) | IC50 (Bcap37) | IC50 (MCF7) | IC50 [1] | IC50 (A549)
1 | C[C@H]1O[C@@H](O[C@H]2CC[C@@]3(C)[C@@H](CC[C@]4(C)[C@@H]3C=C[C@]35OC[C@@]6(CCC(C)(C)C[C@H]63)[C@@H](O)C[C@]54C)[C@]2(C)CO)[C@H](O)[C@@H](O)[C@H]1O | 13.3 µM | 17.3 µM | 43.3 µM | 19.8 µM | > 50 µM
2 | CO[C@@H]1C=C2[C@@H]3CC(C)(C)CC[C@]3(CO)[C@@H](O)C[C@@]2(C)[C@]2(C)CC[C@H]3[C@](C)(CO)[C@@H](O[C@@H]4O[C@H](C)[C@H](O)[C@H](O)[C@H]4O)CC[C@]3(C)[C@@H]12 | 30.2 µM | > 50 µM | > 50 µM | > 50 µM | > 50 µM
3 | CO[C@@H]1C=C2[C@@H]3CC(C)(C)CC[C@]3(CO)[C@@H](O)C[C@@]2(C)[C@]2(C)CC[C@H]3C(C)(C)[C@@H](O[C@@H]4O[C@H](C)[C@H](O)[C@H](O)[C@H]4O)CC[C@]3(C)[C@@H]12 | > 50 µM | > 50 µM | > 50 µM | > 50 µM | > 50 µM
4 | CC(=O)OC[C@@]1(C)[C@@H]2CC[C@]3(C)[C@H](C=C[C@]45OC[C@@]6(CCC(C)(C)C[C@H]64)[C@@H](O)C[C@]53C)[C@@]2(C)CC[C@@H]1O[C@@H]1O[C@H](C)[C@H](O)[C@H](O)[C@H]1O | 9.76 µM | 26 µM | 33.5 µM | 24.8 µM | 34.1 µM
5 | C[C@H]1O[C@@H](O[C@H]2CC[C@@]3(C)[C@@H](CC[C@]4(C)[C@@H]3C=CC3=C5CC(C)(C)CC[C@]5(CO)C(=O)C[C@]34C)[C@]2(C)CO)[C@H](O)[C@@H](O[C@@H]2O[C@H](CO)[C@@H](O)[C@H](O)[C@H]2O)[C@H]1O | 40.2 µM | > 50 µM | > 50 µM | > 50 µM | > 50 µM
6 | CO[C@@H]1C=C2C3CC(C)(C)CC[C@]3(CO)[C@H](O)C[C@@]2(C)[C@]2(C)CC[C@H]3[C@](C)(CO)[C@@H](O[C@@H]4O[C@H](C)[C@H](O)[C@H](O[C@@H]5O[C@H](CO)[C@@H](O)[C@H](O)[C@H]5O)[C@H]4O)CC[C@]3(C)[C@@H]12 (stereo partly specified) | > 50 µM | > 50 µM | > 50 µM | > 50 µM | > 50 µM
7 | C[C@H]1O[C@@H](O[C@H]2CC[C@@]3(C)[C@@H](CC[C@]4(C)[C@@H]3C=C[C@]35OC[C@@]6(CCC(C)(C)C[C@H]63)[C@H](O)C[C@]54C)[C@]2(C)CO)[C@H](O)[C@@H](O)[C@H]1O | 9.34 µM | 32 µM | 49 µM | 20.4 µM | > 50 µM
8 | C[C@H]1O[C@@H](O[C@H]2CC[C@@]3(C)[C@@H](CC[C@]4(C)[C@@H]3C=C[C@]35OC[C@@]6(CCC(C)(C)C[C@H]63)[C@H](O)C[C@]54C)[C@]2(C)CO)[C@H](O)[C@@H](O[C@@H]2O[C@H](CO)[C@@H](O)[C@H](O)[C@H]2O)[C@H]1O | 4.88 µM | 10.7 µM | 7.68 µM | 9.61 µM | 30.8 µM
9 | C[C@H]1O[C@@H](O[C@H]2CC[C@]3(C)[C@H]4C=C[C@]56OC[C@@]7(CCC(C)(C)C[C@H]75)[C@@H](O)C[C@@]6(C)[C@]4(C)CC[C@H]3C2(C)C)[C@H](O)[C@@H](O[C@@H]2O[C@H](CO)[C@@H](O)[C@H](O)[C@H]2O)[C@H]1O | 20.5 µM | 15.4 µM | 21.3 µM | 16.7 µM | > 50 µM
10 | CC(=O)O[C@H]1[C@H](O[C@H]2[C@@H](O)[C@@H](C)O[C@@H](O[C@H]3CC[C@@]4(C)[C@@H](CC[C@]5(C)[C@@H]4C=C[C@]46OC[C@@]7(CCC(C)(C)C[C@H]74)[C@@H](O)C[C@]65C)[C@]3(C)CO)[C@@H]2O)O[C@H](CO)[C@@H](O)[C@@H]1O | 20.1 µM | 17.7 µM | 30.1 µM | 5.74 µM | 38.9 µM
11 | CC(=O)O[C@@H]1[C@@H](O)[C@H](O[C@H]2[C@@H](O)[C@@H](C)O[C@@H](O[C@H]3CC[C@@]4(C)[C@@H](CC[C@]5(C)[C@@H]4C=C[C@]46OC[C@@]7(CCC(C)(C)C[C@H]74)[C@@H](O)C[C@]65C)[C@]3(C)CO)[C@@H]2O)O[C@H](CO)[C@H]1O | 12.9 µM | 26.6 µM | 22.2 µM | 13.7 µM | 38.2 µM
12 | CC(=O)OC[C@H]1O[C@@H](O[C@H]2[C@@H](O)[C@@H](C)O[C@@H](O[C@H]3CC[C@@]4(C)[C@@H](CC[C@]5(C)[C@@H]4C=C[C@]46OC[C@@]7(CCC(C)(C)C[C@H]74)[C@@H](O)C[C@]65C)[C@]3(C)CO)[C@@H]2O)[C@H](O)[C@@H](O)[C@@H]1O | 20.8 µM | 34.1 µM | 36.2 µM | 16.9 µM | 35.3 µM
13 | CC(=O)OC[C@@]1(C)[C@@H]2CC[C@]3(C)[C@H](C=C[C@]45OC[C@@]6(CCC(C)(C)C[C@H]64)[C@@H](O)C[C@]53C)[C@@]2(C)CC[C@@H]1O[C@@H]1O[C@H](C)[C@H](O)[C@H](O[C@@H]2O[C@H](CO)[C@@H](O)[C@H](O)[C@H]2O)[C@H]1O | > 50 µM | > 50 µM | > 50 µM | > 50 µM | > 50 µM
14 | C[C@@H]1O[C@@H](O[C@H]2[C@H](O)[C@@H](O)[C@H](O[C@H]3CC[C@]4(C)[C@H]5C=C[C@]67OC[C@@]8(CCC(C)(C)C[C@H]86)[C@@H](O)C[C@@]7(C)[C@]5(C)CC[C@H]4C3(C)C)O[C@@H]2CO[C@@H]2O[C@H](CO)[C@@H](O)[C@H](O)[C@H]2O)[C@H](O)[C@H](O)[C@H]1O | > 50 µM | > 50 µM | > 50 µM | > 50 µM | > 50 µM
15 | CC(=O)OC[C@H]1O[C@@H](O[C@H]2[C@@H](O)[C@@H](C)O[C@@H](O[C@H]3CC[C@@]4(C)[C@@H](CC[C@]5(C)[C@@H]4C=C[C@]46OC[C@@]7(CCC(C)(C)C[C@H]74)[C@H](O)C[C@]65C)[C@]3(C)CO)[C@@H]2O)[C@H](O)[C@@H](O)[C@@H]1O | 8.29 µM | 17.7 µM | 9.98 µM | 7.59 µM | 15.3 µM
16 | C[C@H]1O[C@@H](O[C@H]2CC[C@@]3(C)[C@@H](CC[C@]4(C)[C@@H]3C=CC3=C5CC(C)(C)CC[C@]5(CO)[C@H](O)C[C@]34C)[C@]2(C)CO)[C@H](O)[C@@H](O)[C@H]1O | 18.9 µM | 38.4 µM | 29.6 µM | 16.5 µM | > 50 µM
17 | C[C@H]1O[C@@H](O[C@H]2CC[C@@]3(C)[C@@H](CC[C@]4(C)[C@@H]3C=CC3=C5CC(C)(C)CC[C@]5(CO)[C@@H](O)C[C@]34C)[C@]2(C)CO)[C@H](O)[C@@H](O)[C@H]1O | 26.2 µM | 43.2 µM | 42.1 µM | 19.8 µM | > 50 µM
18 | C[C@H]1O[C@@H](O[C@H]2CC[C@@]3(C)[C@@H](CC[C@]4(C)[C@@H]3C=CC3=C5CC(C)(C)CC[C@]5(CO)[C@@H](O)C[C@]34C)[C@]2(C)CO)[C@H](O)[C@@H](O[C@@H]2O[C@H](CO)[C@@H](O)[C@H](O)[C@H]2O)[C@H]1O | > 50 µM | > 50 µM | > 50 µM | > 50 µM | > 50 µM
19 | C[C@H]1O[C@@H](O[C@H]2CC[C@@]3(C)[C@@H](CC[C@]4(C)[C@@H]3C=C[C@]35OC[C@@]6(CCC(C)(C)C[C@H]63)C(=O)C[C@]54C)[C@]2(C)CO)[C@H](O)[C@@H](O[C@@H]2O[C@H](CO)[C@@H](O)[C@H](O)[C@H]2O)[C@H]1O | 20.6 µM | 20.2 µM | 24 µM | 7.75 µM | 34.1 µM
20 | O=c1[nH]cc(F)c(=O)[nH]1 [FLUOROURACIL] | – | – | – | 1.5 µM | –
21 | C[C@H]1O[C@@H](O[C@H]2CC[C@@]3(C)[C@@H](CC[C@]4(C)[C@@H]3C=C[C@]35OC[C@@]6(CCC(C)(C)C[C@H]63)[C@@H](O)C[C@]54C)[C@]2(C)CO)[C@H](O)[C@@H](O[C@@H]2O[C@H](CO)[C@@H](O)[C@H](O)[C@H]2O)[C@H]1O [SAIKOSAPONIN A] | 8.34 µM | 14 µM | 19 µM | 13 µM | 14.5 µM

— ChEMBL document CHEMBL3612048, “Cytotoxic triterpenoid glycosides (saikosaponins) from the roots of Bupleurum chinense” (Bioorg Med Chem Lett, 2015)
